Source: article PMC6331991, “Anemarrhena asphodeloides Non-Steroidal Saponin Components Alter the Pharmacokinetic Profile of Its Steroidal Saponins in Rat” (Molecules, 2015)
Read-outs that look alike come from different tables or passages of the source.

Assays:
[1] = Pharmacokinetic study of four steroidal saponins in rat plasma after oral administration of A. asphodeloides fractions (UPLC-MS/MS); type: in vivo, Sprague-Dawley rats; conditions: rat, in vivo, po; for AUC(0-t) / half-life / Cmax / Tmax: male, Sprague-Dawley, 400 mg/kg
Description: The dried A. asphodeloides were chopped into slices before using. The A. asphodeloides was immersed in water (1:10, w/v) and extracted twice by refluxing for 2 h. After filtration, the supernatant was condensed to a certain volume under reduced pressure, and 95% ethanol was added to the water extract filtrates until the concentration of ethanol was 80%. The precipitate was filtered as the macromolecular fraction (MF), the ethanol supernatant was concentrated under reduced pressure to a certain volume under vacuum and then purified by gradient elution with water, 40% ethanol and 70% ethanol from an AB-8 MARO porous resin column and then the water-eluted fraction was combined with the 40% ethanol-eluted fraction as the small molecule fraction (SF) and the 70% ethanol eluted fraction was the A. asphodeloides saponins extract (ASE). All of the residues were lyophilized and the resulting dry powder was stored at 4 °C before usage. The contents of four steroidal saponins in ASE dry powder were measured quantitatively by the external standard method using the same chromatography conditions as described above. The contents of timosaponin BII, anemarsaponin BIII, timosaponin AIII and timosaponin E1 in ASE were 429.12, 89.81, 59.13 and 41.25 mg/g, respectively.
Frozen plasma samples were unfrozen at room temperature and treated as follows: to each 200 µL plasma sample, 20 µL of IS (920 ng/mL ginsenoside Re) working solution and 600 µL of acetonitrile were added. After vortexing for 2 min and centrifugation at 13,000 rpm at 4 °C for 10 min the supernatant was transferred into a new tube and evaporated to dryness in a rotary evaporator at 39 °C and the residue was reconstituted in 100 µL of 0.1% formic acid–acetonitrile (50:50, v/v), vortexed for 2 min and centrifuged at 13,000 rpm at 4 °C for 10 min. The supernatant was transferred to an autosampler vial and an aliquot of 2 μL was injected onto the UPLC-MS/MS system for analysis.
Male Sprague-Dawley rats (250–280 g) were obtained from the Shanghai Slac Laboratory Animal Co., Ltd. (Shanghai, China). All animals were kept in an environmentally controlled breeding room (temperature: 20–25 °C, humidity: 55%–65%) for 1 week before the experiments started. Animal welfare and experimental procedures were strictly in accordance with the ethical norms of the Nanjing University of Chinese Medicine. All rats were fasted for 12 h with free access to water prior to the experiments, twenty-four rats were divided into four groups and then were given a single dose of ASE, ASE-SF, AS-MF, AS-M-SF. A 40 mg/mL ASE (the amount of MF, SF added to group AS-MF, ASE-SF, AS-M-SF were based on the proportion extracted from A. asphodeloides) aqueous solution in each group was administered orally at a dose of 400 mg/kg, which contained 171.61, 35.92, 23.62, 16.53 mg/kg of timosaponin BII, anemarsaponin BIII, timosaponin AIII, timosaponin E1, respectively.
About 400 μL blood samples were collected from venipuncture before intragastric gavage and at 0.083, 0.25, 0.5, 1, 1.5, 2, 4, 6, 8, 10, 12, 24 h after a single oral administration. The blood samples were immediately transferred to heparinized tubes and centrifuged at 3000 rpm for 10 min, and the supernatant was transferred into 2.0 mL Eppendorf tubes and stored at −80 °C prior to analysis. Blank plasma was obtained from the rat without oral administration and was used to investigate the assay development and validation.
To calculate the pharmacokinetic parameters of analytes in different group, concentrations–time dada were analyzed by DAS 3.2 software (Mathematical Pharmacology Professional Committee of China, Shanghai, China, 2011). Data were measured as the mean ± standard deviation (S.D.) with triplicate measurements. The identification of significances between different groups was executed with Student’s t-test. A p value < 0.05 was considered statistically significant.

[2] = set-up: method as in PMID 20686523, PMID 23542670; conditions: plasma concentration peak; cited from earlier work

Structure (SMILES)	AUC(0-t) [1] [ng·h/mL]	half-life [1] [h]	AUC(0-t) ([1]; AUC0–t) [ng·h/mL]	Cmax [1] [ng/mL]	half-life ([1]; T1/2) [h]	Tmax [1] [h]	T1/2 [1]	shape of plasma concentration-time curve [1]	shape of plasma concentration-time curve [2]
CC1=C(CCC(C)COC2OC(CO)C(O)C(O)C2O)OC2CC3C4CCC5CC(OC6OC(CO)C(O)C(O)C6OC6OC(CO)C(O)C(O)C6O)CCC5(C)C4CCC3(C)C12 (centres unmarked) [Anemarsaponin BIII, anemarsaponin BIII]	551 ± 75	7.63 ± 3.37	257 ± 20.4	34.5 ± 3.75	2.75 ± 1.14	3.75 ± 1.78	no obvious difference	double peak	
CC(CCC1(O)OC2C(O)C3C4CCC5CC(OC6OC(CO)C(O)C(O)C6OC6OC(CO)C(O)C(O)C6O)CCC5(C)C4CCC3(C)C2C1C)COC1OC(CO)C(O)C(O)C1O (centres unmarked) [Timosaponin E1, timosaponin E1]	286 ± 36.8	8.8 ± 3.83	115 ± 5.35	18.9 ± 1.54	2.95 ± 0.4	4	no obvious difference	double peak	
C[C@H]1CC[C@@]2(OC1)O[C@H]1C[C@H]3[C@@H]4CC[C@@H]5C[C@@H](O)CC[C@]5(C)[C@H]4CC[C@]3(C)[C@H]1[C@@H]2C [sarsasapogenin]									single plasma concentration peak
